Measurements as given in patent publication US20150359794A1, “IMPAIRMENT OF THE LARGE RIBOSOMAL SUBUNIT PROTEIN RPL24 BY DEPLETION OR ACETYLATION” (Buck Institute for Research on Aging, priority 2014, published 2015).

Experiments:
ribosomal protein = experiment: Acetyl-lysine western blot of ribopellets (ribosomal protein acetylation); format: cell-based, human; settings: SKBR3 cells
Procedure: Previous studies have shown that pan-inhibitors of class I and II histone deacetylases, like TSA, can rapidly destabilize a number of oncogenic transcripts including HER2 in a cycloheximide-dependent manner (FIG. 9). […] Thus, SKBR3 cells were treated with TSA to evaluate polysome protein acetylation and determine if, similar to RPL24 depletion, histone deacetylase inhibition can affect ribosome assembly dynamics. To detect early (2 h) ribosome or polysome acetylation following histone deacetylase inhibition treatment (1 μM TSA), SKBR3 polysomes were isolated using a discontinuous sucrose gradient as previously described. […] Mass spectrometry studies indicate that 15 ribosomal proteins, 11 large subunit proteins (RPL24 included) and 4 small subunit proteins, underwent at least a two-fold induction in acetylation following 2 h or 6 h TSA treatment (1 μM) (FIG. 4b, FIG. 10a-q).
(§1) Like TSA, the HDAC6 (class IIb)-selective inhibitors, Tubacin and Compound 101, as well as HDAC6 siRNA, all induce tubulin acetylation as expected as well as ribosomal protein acetylation, including the band that co-migrates with RPL24 (FIG. 4c,d, indicated by arrows). […] Thus, the tubulin acetylating effects of pan-histone deacetylase inhibition, known to be mediated by inhibition or knockdown of HDAC6, correspond to the observed ribosome and RPL24 acetylation responses induced by TSA.
(§2) Cells are lysed in RIPA buffer (10 mM Tris-HCL (pH 8.0), 1 mM EDTA, 0.5 mM EGTA, 1% triton X-100, 0.1% sodium deoxycholate, 0.1% SDS, 140 mM NaCl, 20 mM NaF, Complete EDTA-free protease inhibitor tablets (Roche Diagnostics Corp., Basel, Switzerland) and the phosphatase inhibitor cocktail PhosSTOP (Roche)), the latter two as indicated by the manufacturer's protocol. Equal amounts of protein are diluted in 2× sample buffer. Immunoblots on PVDF (Polyvinyldene Fluoride) membranes are blocked with nonfat milk in tris-buffered saline with 0.05% tween-20 (TBST). The following antibodies are incubated with membranes in 5% nonfat milk in TBST: RPL24 (Proteintech, Chicago, Ill.), Cyclin D1, Rack1, RPL4 (Santa Cruz Biotechnology, Santa Cruz, Calif.), NBS1, GAPDH (EMD Millipore Corporation, Chicago, Ill.), Survivin, β-tubulin, acetyl-lysine, eIF6, acetyl-H2B, H2B, (Cell Signaling Technology, Boston, Mass.), acetyl-tubulin, tubulin (Sigma Aldrich (St. Louis, Mo.))
Cells, plated at […] confluency, are treated as indicated. After treatment, cells are treated with 50 μg/ml cycloheximide for 15 minutes. Cells are lysed with a buffer containing 10 mM HEPES, 10 mM KCl, 75 mM NaCl, 10 mM MgCl2, 0.35% NP40, pH 7.9 supplemented with Complete EDTA-free protease inhibitor tablets, PhosSTOP phosphatase inhibitor tablets (Roche) per manufacturer's instructions, 50 μg/ml cycloheximide, SUPERase RNase inhibitors (Life Technologies) per manufacturer's instructions, 15 μM TSA, and 5 mM nicotinimide to inhibit histone deacetylases. Supernatants are collected as cytoplasmic preparations. Where indicated, pellets containing nuclei are resuspended in RIPA buffer (described above). The suspension is spun at 13,000 rpm for 5 min and supernatants are collected as nuclear preparations.
Ribosomes are subsequently isolated from cytoplasmic preparations as described previously. Briefly, lysates are layered on top of a 12% and 33% discontinuous sucrose gradient and spun at 38,000 rpm for 2 h. The resulting polysome pellet is then resuspended, stripped of RNA with acetic acid, and then pelleted with acetone. The pellet is then resuspended in 8 M urea, 2% CHAPS, and 25 mM dithiothreitol (DTT).
FIG. 4: Ribosomal protein acetylation is induced by histone deacetylase inhibition. (a-c) SKBR3 cells were treated with the indicated drugs for the indicated period of time. (d) SKBR3 cells were transfected with the indicated siRNAs and allowed to incubate for 72 hours. (a, c, d). The indicated western blots were performed in ribopellets, total cytoplasmic lysates, or nuclear extracts. […]

tubulin = experiment: Western blot for tubulin acetylation in SKBR3 cells; format: cell-based, human; settings: western blot (FIG. 4c,d)
Source text: as §1, §2
FIG. 4: Ribosomal protein acetylation is induced by histone deacetylase inhibition. (a-c) SKBR3 cells were treated with the indicated drugs for the indicated period of time. (d) SKBR3 cells were transfected with the indicated siRNAs and allowed to incubate for 72 hours. (a, c, d). The indicated western blots were performed in ribopellets, total cytoplasmic lysates, or nuclear extracts. (b) Mass spectrometry was performed on ribopellets as described in materials and methods and in FIG. 6. The fold change in acetylated peptide to total peptide case by TSA treatment is plotted. Only proteins that underwent at least a two-fold induction upon TSA treatment are shown. Error bars represent the standard error of the mean for three biological replicates.

CC(/C=C/C(=O)NO)=C\[C@@H](C)C(=O)c1ccc(N(C)C)cc1 [TSA, trichostatin-A]
acetyl-lysine protein bands in polysomes, including band co-migrating with RPL24 (ribosomal protein; 1 μM TSA, 2 h, western blot): several TSA-induced bands | total RPL24 levels (ribosomal protein; 1 μM TSA, 2 h, western blot): not altered | ribosomal protein acetylation, including the band that co-migrates with RPL24 (ribosomal protein; western blot of ribopellets (FIG. 4c,d)): induce | tubulin acetylation (tubulin): induce
